Source: US20080312164A1 (priority 2006, published 2008)
Read-outs that look alike come from different tables or passages of the source. Marks after values point to notes of the source that are not given here.

How the values were obtained:
Du145 cells [1] = assay: Calcein AM cytotoxicity assay, Du145; type: cell-based; settings: Homo sapiens, DU-145; Du145, Calcein AM, 72 h; read-out: IC50
Excerpt: (§1) Five serial 1:2 dilutions were made with anhydrous DMSO at 100× the final concentration used in the assay.

Du145 cells [2] = assay: Cell Titer-Glo cytotoxicity assay, Du145; type: cell-based; settings: Homo sapiens, DU-145; Du145, Cell Titer-Glo, 72 h; read-out: IC50
Excerpt: as §1

HCT-116 cells [3] = assay: Calcein AM cytotoxicity assay, HCT-116; type: cell-based; settings: Homo sapiens; HCT-116, Calcein AM, 72 h; read-out: IC50
Excerpt: as §1

HCT-116 cells [4] = assay: Cell Titer-Glo cytotoxicity assay, HCT-116; type: cell-based; settings: Homo sapiens; HCT-116, Cell Titer-Glo, 72 h; read-out: IC50
Excerpt: as §1

Hep3B cells [5] = assay: Calcein AM cytotoxicity assay, Hep3B; type: cell-based; settings: Homo sapiens, Calcein AM, 72 h, read-out: IC50
Excerpt: as §1

Hep3B cells [6] = assay: Cell Titer-Glo cytotoxicity assay, Hep3B; type: cell-based; settings: Homo sapiens, Cell Titer-Glo, 72 h, read-out: IC50
Excerpt: as §1

SF-268 cells [7] = assay: Calcein AM cytotoxicity assay, SF-268; type: cell-based; settings: Homo sapiens; SF-268, Calcein AM, 72 h; read-out: IC50
Excerpt: as §1

SF-268 cells [8] = assay: Cell Titer-Glo cytotoxicity assay, SF-268; type: cell-based; settings: Homo sapiens; SF-268, Cell Titer-Glo, 72 h; read-out: IC50
Excerpt: as §1

SK-OV-3 cells [9] = assay: Calcein AM cytotoxicity assay, SK-OV-3; type: cell-based; settings: Homo sapiens; SK-OV-3, Calcein AM, 72 h; read-out: IC50
Excerpt: as §1

SK-OV-3 cells [10] = assay: Cell Titer-Glo cytotoxicity assay, SK-OV-3; type: cell-based; settings: Homo sapiens; SK-OV-3, Cell Titer-Glo, 72 h; read-out: IC50
Excerpt: as §1

NCI/ADR RES cells [11] = assay: Calcein AM cytotoxicity assay, NCI/ADR-RES; type: cell-based; settings: Homo sapiens, Calcein AM, 72 h, read-out: IC50
Excerpt: as §1

NCI/ADR RES cells [12] = assay: Cell Titer-Glo cytotoxicity assay, NCI/ADR-RES; type: cell-based, human; settings: Homo sapiens; NCI/ADR-RES, Cell Titer-Glo, 72 h; read-out: IC50
Excerpt: as §1

NCI-H460 cells [13] = assay: Calcein AM cytotoxicity assay, NCI-H460; type: cell-based; settings: Homo sapiens; NCI-H460, Calcein AM, 72 h; read-out: IC50
Excerpt: as §1

NCI-H460 cells [14] = assay: Cell Titer-Glo cytotoxicity assay, NCI-H460; type: cell-based, human; settings: Homo sapiens; NCI-H460, Cell Titer-Glo, 72 h; read-out: IC50
Excerpt: as §1

MCF7 cells [15] = assay: Calcein AM cytotoxicity assay, MCF7; type: cell-based; settings: Homo sapiens; MCF7, Calcein AM, 72 h; read-out: IC50
Excerpt: as §1

MCF7 cells [16] = assay: Cell Titer-Glo cytotoxicity assay, MCF7; type: cell-based, human; settings: Homo sapiens; MCF7, Cell Titer-Glo, 72 h; read-out: IC50
Excerpt: as §1

[17] = test system: NmuMG mouse mammary normal epithelial cells; assay: Calcein AM cytotoxicity assay, NmuMG; type: cell-based; settings: Epithelial cell, NmuMG, Calcein AM, 72 h, read-out: IC50
Excerpt: as §1

[18] = test system: NmuMG mouse mammary normal epithelial cells; assay: Cell Titer-Glo cytotoxicity assay, NmuMG; type: cell-based; settings: Mus musculus, Epithelial cell; NmuMG, Cell Titer-Glo, 72 h; read-out: IC50
Excerpt: as §1

HT-29 cells = assay: MTT cytotoxicity assay, HT-29; type: cell-based; settings: Homo sapiens; HT-29, MTT, 24 h; read-out: IC50
Excerpt: The IC50 value for each library member represents at least twelve replicates of dose-response experiments conducted over five concentrations. […] In this assay, live cells were distinguished by the intracellular enzymatic activity that converts the cell-permeable molecule MTT to strongly colored formazan crystals, which are retained within live cells and absorb light at 570 nm.
MTT Cytotoxicity Assay. HT-29 cell lines were maintained in RPMI medium 1640 supplemented with 10% (wt/vol) FBS and 1% penicillin-streptomycin (PS) (100 units/mL and 100 μg/mL). Cells were harvested by trypsinization using 0.25% trypsin and 0.1% EDTA and plated at a density of 2,000-5,000 cells per well of each 96-well microtiter plate. Cells were grown for 24 h at 37° C., with 5% CO2/95% air in a humidified incubator to allow cell attachment to occur before compound addition. Library members were stored at −20° C. under desiccating conditions before the assay. Library member stocks (1000×) were prepared in falcon tubes (BD Biosciences). Five dilutions were made with DMSO at 1000× the final concentration used in the assay. The 1000× stocks (3 μL) were diluted with complete culture medium (3 mL). Each plate contained twelve replicates of cells treated with 0.1% DMSO in complete cell culture medium that served as an individual negative control. Library member stocks (1×, 200 μL) were added to aspirated cells and replicated twelve times on each plate. Cells were incubated with the library members for 24 h before optical density reading. Test plates were removed from the incubator and washed once in sterile PBS to remove serum containing library members. Freshly-made 10×MTT solution in sterile PBS (5 mg/mL) was diluted 1:10 in serum-free culture medium and was sterilized using a 0.2 μm filter. Diluted MTT solution (1×, 50 μL) was added to each well and the plates were incubated in the dark for 2 h. Test plates were centrifuged at 1800×g for 5 min at 4° C. using a Beckman GPR centrifuge. MTT solution was removed by aspiration and 100 μL DMSO was added to each well to lyse cells and solubilize formazan crystals. Test plates were incubated in the dark at room temperature for 10 min. Plates were read for optical density at 570 nm.
IC50 Calculations. For each library member, at least three dose-response experiments were conducted on separate plates. […] To calculate IC50, percent inhibitions were plotted as a function of log[concentration] and then fit to a four-parameter logistic model that allowed for a variable Hill slope by using XLFIT 4.1 (ID Business Solutions, Emeryville, Calif.).

human cancer cell lines = assay: Cytotoxicity across the panel of human cancer cell lines (average, high-throughput assays); type: cell-based
Excerpt: as §1

NmuMG Cell Line = assay: Cytotoxicity in NmuMG cell line, summary table (assay not stated); type: cell-based; settings: Mus musculus, assay not stated (mostly Cell Titer-Glo values; Calcein AM values for 20, 24, 39)
Excerpt: as §1

HCT-116 cells [19] = settings: literature (27, 35); cited from earlier work
several cell lines = settings: reported; cited from earlier work
[20] = average across eight human cancer cell lines, MTT (HT-29) values excluded, read-out: Cancerous Average IC50 / Average IC50 in Cancer Cell Lines
[21] = average across eight human cancer cell lines, MTT (HT-29) values excluded

| SMILES | IC50 (Du145 cells [1]) | IC50 (Du145 cells [2]) | IC50 (HCT-116 cells [3]) | IC50 (HCT-116 cells [4]) | IC50 (Hep3B cells [5]) | IC50 (Hep3B cells [6]) | IC50 (SF-268 cells [7]) | IC50 (SF-268 cells [8]) | IC50 (SK-OV-3 cells [9]) | IC50 (SK-OV-3 cells [10]) | IC50 (NCI/ADR RES cells [11]) | IC50 (NCI/ADR RES cells [12]) | IC50 (NCI-H460 cells [13]) | IC50 (NCI-H460 cells [14]) | IC50 (MCF7 cells [15]) | IC50 (MCF7 cells [16]) | IC50 [17] | IC50 [18] | IC50 (HT-29 cells) | IC50 (human cancer cell lines; [20]) | also measured |
| --- | --- | --- | --- | --- | --- | --- | --- | --- | --- | --- | --- | --- | --- | --- | --- | --- | --- | --- | --- | --- | --- |
| S=C=NCc1ccco1 [Compound 24, 2-(isothiocyanatomethyl)furan] | > 50 µM | > 50 µM | > 50 µM | > 50 µM | > 30 µM | > 30 µM | > 50 µM | > 50 µM | > 30 µM | > 50 µM | 21.6 µM | > 50 µM | > 50 µM | > 50 µM | > 50 µM | > 50 µM | 151 µM | > 200 µM | > 50 µM | > 50 µM | IC50 (NmuMG Cell Line): 151 µM |
| O=C(CCCCCCC(=O)Nc1cccnc1)NO [Compound 7, pyroxamide] | – | – | – | – | – | – | – | – | – | – | – | – | – | – | – | – | – | – | – | – | IC50 (HCT-116 cells [19]): 6.5 ± 0.5 µM; IC50 (several cell lines): 1 to 20 µM |
| CC(C)CN=C=S [Compound 15, 1-isothiocyanato-2-methylpropane] | > 50 µM | > 50 µM | 27.6 µM | > 50 µM | 32.8 µM | > 30 µM | > 50 µM | > 50 µM | > 50 µM | > 50 µM | > 50 µM | > 50 µM | > 50 µM | > 50 µM | > 50 µM | > 50 µM | > 200 µM | > 200 µM | > 50 µM | > 50 µM | IC50 (human cancer cell lines; Homo sapiens, Calcein AM and CellTiter Glo, all cell lines (FIG. 3 legend), read-out: IC50, all cell lines): > 50 µM; Cancerous Average IC50 / Average IC50 in Cancer Cell Lines (human cancer cell lines; [21]): >50.00^b μM; IC50 (NmuMG Cell Line): > 200 µM |
| S=C=Nc1ccccc1 [Compound 19, 1-isothiocyanatobenzene] | > 50 µM | > 50 µM | > 20 µM | > 20 µM | > 50 µM | > 20 µM | 2.32 µM | > 50 µM | > 50 µM | > 50 µM | > 20 µM | > 20 µM | > 50 µM | > 20 µM | > 50 µM | > 50 µM | > 200 µM | > 200 µM | > 50 µM | >50.00 µM | IC50 (NmuMG Cell Line): > 200 µM |
| S=C=NC1CC1 [Compound 17, isothiocyanatocyclopropane] | 29.7 µM | > 50 µM | > 50 µM | > 50 µM | > 30 µM | > 30 µM | > 50 µM | > 50 µM | > 30 µM | > 50 µM | > 50 µM | > 50 µM | > 50 µM | > 50 µM | 15.1 µM | 12.6 µM | > 200 µM | > 200 µM | > 50 µM | > 50 µM | Cancerous Average IC50 / Average IC50 in Cancer Cell Lines (human cancer cell lines; [21]): >50.00^c μM; IC50 (NmuMG Cell Line): > 200 µM |
